ChEMBL document CHEMBL3272243, “Synthesis and biological activity of camel and bovine beta-melanotropins” (1976)

Experiments:
Type in all cases: functional, Anura
Set-up in all cases: scale not given: the % may be the effect or the level left
[1] = tested on: Zone of skin; test: Melanocyte stimulating activity in frog skin assessed as decrease in reflectance at 5.4 ng relative to control
[2] = tested on: Zone of skin; test: Melanocyte stimulating activity in frog skin assessed as decrease in reflectance at 2.7 to 8.1 ng relative to camel betaC2-MSH
[3] = tested on: Zone of skin; test: Melanocyte stimulating activity in frog skin assessed as decrease in reflectance at 8.1 ng relative to control
[4] = tested on: Zone of skin; test: Melanocyte stimulating activity in frog skin assessed as decrease in reflectance at 1.8 ng relative to control
[5] = tested on: Zone of skin; test: Melanocyte stimulating activity in frog skin assessed as decrease in reflectance at 2.7 ng relative to control
[6] = tested on: Zone of skin; test: Melanocyte stimulating activity in frog skin assessed as decrease in reflectance at 2.3 ng relative to control
[7] = tested on: Zone of skin; test: Melanocyte stimulating activity in frog skin assessed as decrease in reflectance at 6.9 ng relative to control
[8] = tested on: Zone of skin; test: Melanocyte stimulating activity in frog skin assessed as decrease in reflectance at 2.7 to 8.1 ng relative to bovine beta-MSH

## H-DGGPYKMEHFRWGSPPKD-OH
[1]
  Activity: 53%
[2]
  Activity: 87.8%
[3]
  Activity: 56.5%
[4]
  Activity: 28.4%
[5]
  Activity: 36.4%

## H-DSGPYKMEHFRWGSPPKD-OH
[6]
  Activity: 29.1%
[7]
  Activity: 44.6%
[2]
  Activity: 105.6%
[3]
  Activity: 49.6%
[8]
  Activity: 120.2%
[5]
  Activity: 30.1%
